Reference: PMC7198388, “Radiohybrid Ligands: A Novel Tracer Concept Exemplified by ^18F- or ^68Ga-Labeled rhPSMA Inhibitors” (Journal of Nuclear Medicine, 2020)
Like-named read-outs stand apart in the source and are kept apart here.

What was measured:
LNCaP cells [1] = test: Internalization into LNCaP cells, normalized to (125I-I-BA)KuE; type: cell-based, human; settings: LNCaP cells 1.25 x 10^5/well, 1 h, 37°C, ligand 0.5 nM/well; % of specific internalization of (125I-I-BA)KuE; 68Ga-19F or 18F free-chelator form; mean ± SD, n = 3
Method: Internalization studies were carried out according to a previously published procedure (1). Briefly, LNCaP cells were harvested 24 ± 2 hours before the experiment and seeded in poly -L-lysine coated 24-well plates […]
After removal of the culture medium, the cells were washed once with 500 µL DMEM -F12 (5% BSA) and left to equilibrate for at least 15 min at 37 °C in 200 µL DMEM-F12 (5% BSA). Each well was treated with either 25 µL of either DMEM-F12 (5% BSA, control) or 25 µL of a 100 µM PMPA (2-(Phosphonomethyl)-pentandioic acid, Tocris Bioscience, Bristol, UK) solution in PBS, for blockade. Next, 25 µL of the radioactive-labelled PSMA inhibitor (5.0 nM in PBS) was added and the cells were incubat ed at 37 °C for 60 min. The experiment was terminated by placing the 24 -well plate on ice for 3 min and consecutive removal of the medium. Each well was carefully washed with 250 µL of ice-cold HBSS. Both fractions from the first steps, representing the amount of free radioligand, were combined. Removal of surface bound activity was accomplished by incubation of the cells with 250 µL of ice-cold PMPA (10 µM in PBS) solution for 5 min […]
and rinsed again with another 250 µL of ice-cold PBS. The internalized activity was determined by incubation of the cells in 250 µL 1 M aqueous NaOH for at least 10 min. The obtained fractions were combined with those of the subsequent wash step with 250 µL 1 M aqueous NaOH. Each experiment (control and blockade) was performed in triplicate. Free, surface bound and internalized activity was quantified in a γ-counter. All internalization studies were accompanied by external reference studies, using […]
Data were corrected for non-specific

[2] = Lipophilicity, n-octanol/PBS partition coefficient; type: physicochemical; settings: pH 7.4
Method: Approximately 1 MBq of the labeled tracer was dissolved in 1 mL of a 1:1 mixture (v/v) of PBS (pH 7.4) and n-octanol in a reaction vial (n = 6). After vigorous mixing of the suspension for 3 min at r.t., the vial was centrifuged at 15,000g for 3 min (Biofuge 15, Heraus Sepatech), and 100 μL aliquots of both layers were measured in a γ-counter.

[3] = Biodistribution in LNCaP tumor-bearing CB-17 SCID mice; settings: male, mouse, in vivo, iv, 0.2 nmol, total radioactivity, Biodistribution
Excerpt: Mice were used for experiments when tumors had grown to a diameter of 5–10 mm (3–6 wk after inoculation).
Selected organs were removed, weighed, and measured in a γ-counter.

LNCaP cells [4] = settings: 1 h, 37°C, % of (125I-I-BA)KuE, 18F reference ligands, mean ± SD, n = 3; cited from earlier work
Excerpt: page 20: 8. Supplemental Data 1 Supplemental Table 1.

human serum albumin = target: T1, human serum albumin (Homo sapiens, UniProt P02768); settings: affinity HPLC, Chiralpak HSA column; 19F reference ligands; cited from earlier work
T1 construct: purchased Daicel H13H-2433
T1 sequence (P02768 25-609): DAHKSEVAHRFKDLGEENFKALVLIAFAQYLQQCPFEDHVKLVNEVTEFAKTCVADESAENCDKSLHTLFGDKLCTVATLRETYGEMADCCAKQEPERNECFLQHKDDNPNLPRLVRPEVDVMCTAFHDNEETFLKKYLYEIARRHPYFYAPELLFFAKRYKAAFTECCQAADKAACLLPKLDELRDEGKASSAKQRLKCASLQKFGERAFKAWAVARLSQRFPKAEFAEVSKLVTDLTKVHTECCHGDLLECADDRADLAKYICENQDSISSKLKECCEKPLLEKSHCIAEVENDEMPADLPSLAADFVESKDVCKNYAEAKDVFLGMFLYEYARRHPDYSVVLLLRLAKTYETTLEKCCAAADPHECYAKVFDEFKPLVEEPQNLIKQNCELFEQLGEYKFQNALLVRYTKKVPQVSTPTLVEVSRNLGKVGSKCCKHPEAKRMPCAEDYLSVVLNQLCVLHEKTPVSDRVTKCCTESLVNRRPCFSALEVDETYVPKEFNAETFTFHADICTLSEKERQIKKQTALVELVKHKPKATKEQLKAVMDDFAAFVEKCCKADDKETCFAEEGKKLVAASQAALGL
Method: Binding to HSA was assessed by means of a recently described HPLC method (Fig. 3D) ([34]). […] Supplemental Data 1 Supplemental Table 1.

[5] = system: LNCaP tumor-bearing male CB-17 SCID mice; settings: 1 h p.i., mean ± SD, n = 4, cited from earlier work
Method: page 21: 9. Supplemental Data 2 Supplemental Table 2. Biodistribution of 68Ga-19F-rhPSMA-7 to 10, 18F-rhPSMA-7 and the reference ligands 18F-DCFPyL and 18F-PSMA-1007 at 1 h p.i. in LNCaP tumor-bearing SCID mice (n=3 for 68Ga-19F-rhPSMA-7 to 9, n=3 for 18F-rhPSMA-7, n=4 for 68Ga-19F-rhPSMA-10, 18F-DCFPyL and 18F-PSMA- 1007). Data for reference ligands were taken from a previously published study by our group (3). Values are expressed as a percentage of injected dose per gram (%ID/g), mean ± standard deviation. 18 18 68Ga-natF- 68Ga-natF- 68Ga-natF- 68Ga-natF- 18F-rhPSMA-7 Organ F-DCFPyL F-PSMA- ...

With `CC(C)(C)[Si](F)(c1ccc(C(=O)NC[C@@H](NC(=O)CCC(C(=O)O)N2CCN(CC(=O)O)CCN(CC(=O)O)CCN(CC(=O)O)CC2)C(=O)N[C@H](CCCCNC(=O)CCC(=O)NCCC[C@@H](NC(=O)CC[C@H](NC(=O)N[C@@H](CCC(=O)O)C(=O)O)C(=O)O)C(=O)O)C(=O)O)cc1)C(C)(C)C` (stereo partly drawn) [68/natGa-19/18F-rhPSMA-7, metal not drawn] the Internalization (LNCaP cells [1]) was 126 ± 13 % of reference, the “Lipophilicity log PO/PBS” value [2] was “- 3.2 ± 0.05” and the tissue uptake at 1 h ([3]; Adrenals) was 6.7 ± 2.2 %ID/g. It also gave a tissue uptake at 1 h ([3]; Blood) of 1.9 ± 0.1 %ID/g, a tissue uptake at 1 h ([3]; Bone) of 0.52 ± 0.11 %ID/g and a tissue uptake at 1 h ([3]; Heart) of 1.2 ± 0.3 %ID/g. The tissue uptake at 1 h ([3]; Intestine) was 0.43 ± 0.07 %ID/g, the tissue uptake at 1 h ([3]; Kidneys) was 34.1 ± 6.6 %ID/g and the tissue uptake at 1 h ([3]; Liver) was 0.77 ± 0.1 %ID/g. For the same compound, the tissue uptake at 1 h ([3]; Lung) was 1.7 ± 0.2 %ID/g, the tissue uptake at 1 h ([3]; Muscle) was 0.42 ± 0.22 %ID/g and the tissue uptake at 1 h ([3]; Pancreas) was 0.71 ± 0.11 %ID/g. The tissue uptake at 1 h ([3]; Spleen) was 13.8 ± 5 %ID/g, the tissue uptake at 1 h ([3]; Stomach) was 0.51 ± 0.07 %ID/g and the tissue uptake at 1 h ([3]; Tumor) was 8.6 ± 0.2 %ID/g.

In the case of `O=C(O)CCC(NC(=O)NC(CCCCNC(=O)c1ccc([18F])nc1)C(=O)O)C(=O)O` (stereo not drawn) [19/18F-DCFPyL, 2-(3-{1-Carboxy-5-[(6-[^18F]fluoro-pyridine-3-carbonyl)-amino]-pentyl}-ureido)-pen tanedioic acid], the Internalization (LNCaP cells [4]) is given as 118 ± 4 % of reference, the HSA-binding (human serum albumin) is given as 14% and the “Biodistribution, Adrenals” value [5] is given as 5.0 ± 4.0 %ID/g. The “Biodistribution, Blood” value [5] was 0.34 ± 0.30 %ID/g, the “Biodistribution, Bone” value [5] was 0.12 ± 0.02 %ID/g and the “Biodistribution, Heart” value [5] was 0.25 ± 0.09 %ID/g. The “Biodistribution, Intestine” value [5] was 0.14 ± 0.02 %ID/g, the “Biodistribution, Kidneys” value [5] was 152.4 ± 15.3 %ID/g and the “Biodistribution, Liver” value [5] was 1.7 ± 0.2 %ID/g. The “Biodistribution, Lung” value [5] was 0.46 ± 0.05 %ID/g, the “Biodistribution, Muscle” value [5] was 0.11 ± 0.02 %ID/g and the “Biodistribution, Pancreas” value [5] was 0.20 ± 0.10 %ID/g. For the same compound, the “Biodistribution, Spleen” value [5] was 9.6 ± 4.4 %ID/g, the “Biodistribution, Stomach” value [5] was 0.20 ± 0.03 %ID/g and the “Biodistribution, Tumor” value ([5]; LNCaP tumor) was 7.3 ± 1.5 %ID/g.
